According to the supplement of paper PMC10331698:
± gives the standard deviation of the averaged measurements.

Tests used:
Assay in all cases: level (log10 ratio to DMSO vehicle control); higher = higher biomarker level / cell amount than vehicle control
[1] = compound: C=C(C)C(=O)OCC(F)(F)C(F)(F)C(F)(F)F [2,2,3,3,4,4,4-Heptafluorobutyl methacrylate]; conditions: in DMSO
Method: (§1)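 BioMAP Diversity Plus panel of 12 human primary cell co-culture systems (3C, 4H, LPS, SAg, BT, BF4T, BE3C, CASM3C, HDF3CGF, KF3CT, MyoF, Mphg). Compounds were added 1 h before stimulation and left for 24 h (MyoF 48 h; BT 72 h for soluble read-outs or 6 d for IgG). Biomarkers were read by ELISA, cytotoxicity by SRB, PBMC viability and proliferation by Alamar Blue. Each well value was divided by the mean of 8 DMSO control wells on the same plate and log10 transformed; duplicate blinded samples were tested at 4 concentrations.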

[2] = compound: O=C(O)C(F)(F)C(F)(F)C(F)(F)C(F)(F)C(F)(F)C(F)(F)C(F)(F)F [Ammonium perfluorooctanoate]; conditions: in DMSO
Method: as §1

[3] = compound: OCCCC(F)(F)C(F)(F)C(F)(F)C(F)(F)C(F)(F)C(F)(F)C(F)(F)C(F)(F)F [3-(Perfluorooctyl)propanol]; conditions: 6700 nM; in DMSO
Method: as §1

Test System | level (log10) ([1]; 6700 nM) | level (log10) ([1]; 20000 nM) | level (log10) ([1]; 60000 nM) | level (log10) ([2]; 6700 nM) | level (log10) ([2]; 20000 nM) | level (log10) ([2]; 60000 nM) | level (log10) [3]
HDF3CGF:MMP-1 | 0 ± 0.023 | 0.0015 ± 0.0064 | -0.0005 ± 0.016 | 0.027 ± 0.0085 | -0.002 ± 0.0099 | -0.027 ± 0.062 | -0.0315 ± 0.044
HDF3CGF:PAI-I | -0.045 ± 0.011 | -0.018 ± 0.1 | 0.0135 ± 0.0035 | 0.0885 ± 0.03 | 0.0995 ± 0.044 | 0.017 ± 0.044 | -0.391 ± 0.07
HDF3CGF:Proliferation 72hr | -0.0095 ± 0.087 | 0.001 ± 0.042 | 0.008 ± 0.0071 | 0.058 ± 0.065 | 0.124 ± 0.018 | 0.119 ± 0.021 | -1.04 ± 0.033
HDF3CGF:SRB | 0.007 ± 0.02 | -0.002 ± 0.0099 | 0.017 ± 0.0085 | 0.057 ± 0.055 | 0.078 ± 0.0099 | 0.0945 ± 0.047 | -0.397 ± 0.28
HDF3CGF:TIMP-1 | -0.0075 ± 0.0078 | -0.007 ± 0.024 | -0.019 ± 0.03 | 0.013 ± 0.0028 | 0.0065 ± 0.016 | 0.008 ± 0.02 | -0.105 ± 0.052
HDF3CGF:TIMP-2 | -0.008 ± 0.0014 | -0.0105 ± 0.022 | -0.0245 ± 0.019 | 0.0225 ± 0.015 | 0.0535 ± 0.039 | 0.047 ± 0.05 | 0.029 ± 0.013
KF3CT:CCL2/MCP-1 | 0.026 ± 0.014 | 0.008 ± 0.0085 | -0.0155 ± 0.0035 | 0.011 ± 0.024 | -0.0245 ± 0.036 | -0.119 ± 0.0064 | -0.077 ± 0.025
KF3CT:CD54/ICAM-1 | 0.0015 ± 0.016 | -0.003 ± 0.016 | 0.0085 ± 0.005 | 0.004 ± 0.016 | -0.0165 ± 0.018 | -0.03 ± 0.023 | -0.062 ± 0.024
KF3CT:CXCL8/IL-8 | -0.0045 ± 0.023 | -0.0035 ± 0.015 | -0.0035 ± 0.013 | 0.0075 ± 0.032 | 0.036 ± 0.018 | 0.034 ± 0.02 | 0.003 ± 0.0057
KF3CT:CXCL9/MIG | 0.009 | 0 ± 0.0042 | 0.0005 ± 0.011 | 0.005 ± 0.0014 | 0.0095 ± 0.0035 | 0.0115 ± 0.016 | -0.018 ± 0.0057
KF3CT:CXCL10/IP-10 | 0.0055 ± 0.00071 | -0.001 ± 0.0057 | 0.0085 ± 0.005 | -0.0025 ± 0.00071 | -0.0045 ± 0.005 | -0.007 ± 0.0014 | -0.053 ± 0.02
KF3CT:IL-1alpha | -0.005 ± 0.0071 | -0.007 ± 0.014 | -0.0005 ± 0.016 | -0.0065 ± 0.00071 | -0.026 ± 0.0071 | -0.079 ± 0.025 | -0.0985 ± 0.012
KF3CT:MMP-9 | -0.029 | -0.0115 ± 0.00071 | 0.0085 ± 0.0092 | 0.0045 ± 0.018 | 0.017 ± 0.0099 | 0.0105 ± 0.023 | -0.053 ± 0.0085
KF3CT:PAI-I | 0.005 ± 0.0099 | 0.008 ± 0.0014 | 0.014 | -0.0015 ± 0.0021 | -0.018 ± 0.0099 | -0.01 ± 0.0099 | -0.104 ± 0.077
KF3CT:SRB | 0.0025 ± 0.0021 | 0.0045 ± 0.011 | -0.0075 ± 0.00071 | -0.0125 ± 0.0035 | -0.0115 ± 0.0021 | -0.0195 ± 0.0021 | -0.053
KF3CT:TIMP-2 | -0.004 ± 0.016 | -0.0165 ± 0.00071 | -0.0035 ± 0.012 | -0.006 ± 0.0028 | -0.011 ± 0.018 | 0.0065 ± 0.025 | -0.0255 ± 0.063
KF3CT:uPA | -0.0035 ± 0.011 | -0.008 ± 0.021 | -0.003 ± 0.0042 | 0.0125 ± 0.012 | 0.006 ± 0.017 | 0.001 ± 0.013 | -0.0045 ± 0.025
MyoF:CD106/VCAM-1 | 0.0045 ± 0.019 | -0.006 ± 0.0057 | 0.0035 ± 0.025 | -0.011 ± 0.016 | -0.017 ± 0.0085 | -0.017 ± 0.0057 | -0.078 ± 0.044
MyoF:CXCL8/IL-8 | -0.0125 ± 0.033 | -0.017 ± 0.024 | -0.014 ± 0.041 | 0.019 ± 0.011 | 0.004 ± 0.017 | 0.036 ± 0.065 | -0.0505 ± 0.033
MyoF:Collagen I | 0.0055 ± 0.013 | 0.001 ± 0.021 | 0.018 ± 0.027 | -0.006 ± 0.0014 | 0.0025 ± 0.013 | -0.0125 ± 0.015 | -0.046 ± 0.024

Test System | level (log10) ([1]; 6700 nM) | level (log10) ([1]; 20000 nM) | level (log10) ([1]; 60000 nM) | level (log10) ([2]; 6700 nM) | level (log10) ([2]; 20000 nM) | level (log10) ([2]; 60000 nM) | level (log10) [3]
MyoF:Collagen III | 0.0075 ± 0.0021 | 0 ± 0.0014 | 0.0085 ± 0.0078 | 0.0015 ± 0.00071 | -0.0095 ± 0.0064 | -0.0225 ± 0.0021 | -0.0205 ± 0.00071
MyoF:Collagen IV | -0.0185 ± 0.019 | 0.004 ± 0.065 | 0.014 ± 0.075 | 0.06 ± 0.0099 | 0.0745 ± 0.0035 | 0.225 ± 0.05 | -0.0385 ± 0.029
MyoF:Decorin | 0.018 ± 0.014 | 0.0075 ± 0.005 | 0.022 ± 0.0014 | 0.0055 ± 0.0035 | 0.0075 ± 0.00071 | -0.0355 ± 0.057 | 0.0395 ± 0.033
MyoF:MMP-1 | -0.0215 ± 0.023 | -0.0075 ± 0.0092 | 0.0165 ± 0.047 | -0.029 ± 0.016 | -0.0145 ± 0.019 | 0.0415 ± 0.013 | 0.0315 ± 0.011
MyoF:PAI-I | -0.001 ± 0.0085 | 0.008 ± 0.0085 | 0.015 ± 0.0014 | 0.0095 ± 0.015 | 0.0035 ± 0.013 | 0.027 ± 0.011 | -0.0075 ± 0.021
MyoF:SRB | -0.005 ± 0.016 | -0.0005 ± 0.0021 | 0.0035 ± 0.011 | 0.0005 ± 0.011 | 0.01 ± 0.011 | -0.048 ± 0.014 | -0.017 ± 0.0014
MyoF:TIMP-1 | 0.017 ± 0.028 | 0.0135 ± 0.025 | 0.0075 ± 0.0064 | 0.004 ± 0.0085 | 0.012 ± 0.02 | 0.01 ± 0.033 | -0.0115 ± 0.046
MyoF:alpha-SM Actin | -0.0195 ± 0.0078 | -0.0025 ± 0.0035 | -0.002 ± 0.011 | -0.0145 ± 0.0078 | -0.016 ± 0.0071 | -0.0295 ± 0.04 | -0.0885 ± 0.061
MyoF:bFGF | 0.007 ± 0.0099 | -0.01 ± 0.0085 | 0.007 ± 0.024 | 0 ± 0.013 | -0.007 ± 0.014 | 0.0015 ± 0.015 | -0.034 ± 0.017
lMphg:CCL2/MCP-1 | -0.0335 ± 0.028 | -0.012 ± 0.0099 | -0.0115 ± 0.028 | 0.0045 ± 0.016 | 0.005 ± 0.016 | 0.0065 ± 0.0021 | 0.0035 ± 0.016
lMphg:CCL3/MIP-1alpha | -0.0095 ± 0.0092 | -0.0355 ± 0.044 | -0.0065 ± 0.012 | 0.003 ± 0.018 | 0.013 ± 0.024 | 0.0395 ± 0.029 | -0.018 ± 0.0014
lMphg:CD40 | 0.0055 ± 0.011 | -0.005 ± 0.016 | -0.0195 ± 0.0078 | 0.0115 ± 0.053 | -0.0145 ± 0.0092 | -0.0585 ± 0.023 | -0.037 ± 0.018
lMphg:CD62E/E-Selectin | -0.0085 ± 0.015 | -0.0005 ± 0.013 | -0.031 ± 0.0028 | -0.0205 ± 0.0021 | -0.003 ± 0.058 | 0.0025 ± 0.022 | -0.0425 ± 0.066
lMphg:CD69 | -0.0035 ± 0.044 | -0.0335 ± 0.025 | -0.0615 ± 0.047 | -0.0285 ± 0.018 | -0.0185 ± 0.028 | -0.0715 ± 0.0064 | 0.018 ± 0.04
lMphg:CD106/VCAM-1 | 0.0005 ± 0.0021 | 0.005 ± 0.04 | 0.0115 ± 0.026 | 0.0135 ± 0.0035 | 0.023 ± 0.0014 | -0.0105 ± 0.0021 | 0.001 ± 0.0099
lMphg:CXCL8/IL-8 | 0.037 ± 0.038 | 0.026 ± 0.021 | 0.027 ± 0.038 | 0.0185 ± 0.026 | 0.099 ± 0.0057 | 0.222 ± 0.033 | 0.0655 ± 0.015
lMphg:IL-1alpha | 0.01 ± 0.0057 | 0.0245 ± 0.012 | 0.03 ± 0.034 | 0.0005 ± 0.026 | 0.0005 ± 0.0064 | 0.004 ± 0.014 | -0.0015 ± 0.03
lMphg:M-CSF | -0.011 ± 0.0085 | -0.02 ± 0.02 | -0.021 ± 0.0071 | -0.018 ± 0.0099 | -0.018 ± 0.037 | 0.0055 ± 0.0021 | -0.0255 ± 0.00071
lMphg:SRB | -0.0075 ± 0.0092 | -0.004 ± 0.0057 | 0.0005 ± 0.021 | -0.0125 ± 0.0035 | -0.004 ± 0.0028 | 0.0015 ± 0.005 | 0.0045 ± 0.0078
